Results from PubChem BioAssay (NCI).
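GI50: concentration for 50% inhibition of growth. TGI: concentration producing complete growth inhibition.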

What was measured:
Assay in all cases: DTP human tumour cell line panel, 384-well format
A498 renal = tested on: A498 renal
ACHN renal = tested on: ACHN renal
BT-549 breast = tested on: BT-549 breast
CAKI-1 renal = tested on: CAKI-1 renal
CCRF-CEM leukemia = tested on: CCRF-CEM leukemia
COLO 205 colon = tested on: COLO 205 colon
DU-145 prostate = tested on: DU-145 prostate
EKVX NSCLC = tested on: EKVX NSCLC
HCT-116 colon = tested on: HCT-116 colon
HCT-15 colon = tested on: HCT-15 colon
HL-60(TB) leukemia = tested on: HL-60(TB) leukemia
HOP-62 NSCLC = tested on: HOP-62 NSCLC
HOP-92 NSCLC = tested on: HOP-92 NSCLC
HT29 colon = tested on: HT29 colon
IGROV1 ovarian = tested on: IGROV1 ovarian
K-562 leukemia = tested on: K-562 leukemia
KM12 colon = tested on: KM12 colon
M14 melanoma = tested on: M14 melanoma
MALME-3M melanoma = tested on: MALME-3M melanoma
MCF7 breast = tested on: MCF7 breast
MDA-MB-231 breast = tested on: MDA-MB-231 breast
MDA-MB-435 melanoma = tested on: MDA-MB-435 melanoma
MOLT-4 leukemia = tested on: MOLT-4 leukemia
NCI-H226 lung = tested on: NCI-H226 lung
NCI-H23 lung = tested on: NCI-H23 lung
NCI-H460 NSCLC = tested on: NCI-H460 NSCLC
NCI/ADR-RES ovarian = tested on: NCI/ADR-RES ovarian
OVCAR-3 ovarian = tested on: OVCAR-3 ovarian
OVCAR-4 ovarian = tested on: OVCAR-4 ovarian
OVCAR-5 ovarian = tested on: OVCAR-5 ovarian
PC-3 prostate = tested on: PC-3 prostate
RPMI-8226 leukemia = tested on: RPMI-8226 leukemia
RXF 393 renal = tested on: RXF 393 renal
SF-268 CNS = tested on: SF-268 CNS
SF-539 CNS = tested on: SF-539 CNS
SK-MEL-2 melanoma = tested on: SK-MEL-2 melanoma
SK-MEL-28 melanoma = tested on: SK-MEL-28 melanoma
SK-OV-3 ovarian = tested on: SK-OV-3 ovarian
SN12C renal = tested on: SN12C renal
SR leukemia = tested on: SR leukemia
SW-620 colon = tested on: SW-620 colon
T-47D breast = tested on: T-47D breast
TK-10 renal = tested on: TK-10 renal
U251 glioblastoma = tested on: U251 glioblastoma
UACC-257 melanoma = tested on: UACC-257 melanoma
UACC-62 melanoma = tested on: UACC-62 melanoma
UO-31 renal = tested on: UO-31 renal

Structure (SMILES): N#CCC1(n2cc(-c3ncnc4[nH]ccc34)cn2)CN(C2CCN(C(=O)c3ccnc(C(F)(F)F)c3F)CC2)C1
- GI50 (A498 renal): > 100 µM
- TGI (A498 renal): > 100 µM
- GI50 (ACHN renal): > 64.7 µM
- TGI (ACHN renal): > 100 µM
- GI50 (BT-549 breast): 50.4 µM
- TGI (BT-549 breast): > 100 µM
- GI50 (CAKI-1 renal): > 84.9 µM
- TGI (CAKI-1 renal): > 100 µM
- GI50 (CCRF-CEM leukemia): 20.6 µM
- TGI (CCRF-CEM leukemia): 44.9 µM
- GI50 (COLO 205 colon): 28.5 µM
- TGI (COLO 205 colon): 70.6 µM
- GI50 (DU-145 prostate): 97.1 µM
- TGI (DU-145 prostate): > 100 µM
- GI50 (EKVX NSCLC): > 70 µM
- TGI (EKVX NSCLC): > 100 µM
- GI50 (HCT-116 colon): > 79.5 µM
- TGI (HCT-116 colon): > 100 µM
- GI50 (HCT-15 colon): > 78.9 µM
- TGI (HCT-15 colon): > 100 µM
- GI50 (HL-60(TB) leukemia): > 62 µM
- TGI (HL-60(TB) leukemia): 97.7 µM
- GI50 (HOP-62 NSCLC): > 68.2 µM
- TGI (HOP-62 NSCLC): > 100 µM
- GI50 (HOP-92 NSCLC): 40.1 µM
- TGI (HOP-92 NSCLC): > 100 µM
- GI50 (HT29 colon): > 73 µM
- TGI (HT29 colon): > 100 µM
- GI50 (IGROV1 ovarian): > 76 µM
- TGI (IGROV1 ovarian): > 100 µM
- GI50 (K-562 leukemia): 34.5 µM
- TGI (K-562 leukemia): > 100 µM
- GI50 (KM12 colon): 42.3 µM
- TGI (KM12 colon): > 100 µM
- GI50 (M14 melanoma): > 88.6 µM
- TGI (M14 melanoma): > 100 µM
- GI50 (MALME-3M melanoma): > 75.4 µM
- TGI (MALME-3M melanoma): > 100 µM
- GI50 (MCF7 breast): > 71.8 µM
- TGI (MCF7 breast): > 100 µM
- GI50 (MDA-MB-231 breast): 45.8 µM
- TGI (MDA-MB-231 breast): > 100 µM
- GI50 (MDA-MB-435 melanoma): > 100 µM
- TGI (MDA-MB-435 melanoma): > 100 µM
- GI50 (MOLT-4 leukemia): 16.8 µM
- TGI (MOLT-4 leukemia): 35.4 µM
- GI50 (NCI-H226 lung): 33.5 µM
- TGI (NCI-H226 lung): > 82.9 µM
- GI50 (NCI-H23 lung): 31.7 µM
- TGI (NCI-H23 lung): > 100 µM
- GI50 (NCI-H460 NSCLC): 49.6 µM
- TGI (NCI-H460 NSCLC): > 100 µM
- GI50 (NCI/ADR-RES ovarian): > 100 µM
- TGI (NCI/ADR-RES ovarian): > 100 µM
- GI50 (OVCAR-3 ovarian): > 71.5 µM
- TGI (OVCAR-3 ovarian): > 100 µM
- GI50 (OVCAR-4 ovarian): > 100 µM
- TGI (OVCAR-4 ovarian): > 100 µM
- GI50 (OVCAR-5 ovarian): > 100 µM
- TGI (OVCAR-5 ovarian): > 100 µM
- GI50 (PC-3 prostate): > 100 µM
- TGI (PC-3 prostate): > 100 µM
- GI50 (RPMI-8226 leukemia): 22.2 µM
- TGI (RPMI-8226 leukemia): 65.7 µM
- GI50 (RXF 393 renal): 58.3 µM
- TGI (RXF 393 renal): > 100 µM
- GI50 (SF-268 CNS): > 39.8 µM
- TGI (SF-268 CNS): > 69.3 µM
- GI50 (SF-539 CNS): > 76.2 µM
- TGI (SF-539 CNS): > 100 µM
- GI50 (SK-MEL-2 melanoma): > 100 µM
- TGI (SK-MEL-2 melanoma): > 100 µM
- GI50 (SK-MEL-28 melanoma): > 100 µM
- TGI (SK-MEL-28 melanoma): > 100 µM
- GI50 (SK-OV-3 ovarian): > 73.7 µM
- TGI (SK-OV-3 ovarian): > 100 µM
- GI50 (SN12C renal): 83.1 µM
- TGI (SN12C renal): > 100 µM
- GI50 (SR leukemia): 23.9 µM
- TGI (SR leukemia): 39.4 µM
- GI50 (SW-620 colon): > 61.1 µM
- TGI (SW-620 colon): > 100 µM
- GI50 (T-47D breast): 49.6 µM
- TGI (T-47D breast): > 100 µM
- GI50 (TK-10 renal): > 100 µM
- TGI (TK-10 renal): > 100 µM
- GI50 (U251 glioblastoma): > 100 µM
- TGI (U251 glioblastoma): > 100 µM
- GI50 (UACC-257 melanoma): > 81.8 µM
- TGI (UACC-257 melanoma): > 100 µM
- GI50 (UACC-62 melanoma): > 61.3 µM
- TGI (UACC-62 melanoma): > 100 µM
- GI50 (UO-31 renal): 72.5 µM
- TGI (UO-31 renal): > 100 µM

Structure (SMILES): CNCc1ccc(-c2[nH]c3cc(F)cc4c3c2CCNC4=O)cc1
- GI50 (A498 renal): 15.7 µM
- TGI (A498 renal): 29.3 µM
- GI50 (ACHN renal): 11.5 µM
- TGI (ACHN renal): 28.6 µM
- GI50 (BT-549 breast): 11.8 µM
- TGI (BT-549 breast): 24.2 µM
- GI50 (CAKI-1 renal): 7.56 µM
- TGI (CAKI-1 renal): 19.8 µM
- GI50 (CCRF-CEM leukemia): 3.68 µM
- TGI (CCRF-CEM leukemia): 13.1 µM
- GI50 (COLO 205 colon): 9.97 µM
- TGI (COLO 205 colon): 23.1 µM
- GI50 (DU-145 prostate): 13.9 µM
- TGI (DU-145 prostate): 27.4 µM
- GI50 (EKVX NSCLC): 16.1 µM
- TGI (EKVX NSCLC): 30.9 µM
- GI50 (HCT-116 colon): 6.6 µM
- TGI (HCT-116 colon): 19.4 µM
- GI50 (HCT-15 colon): 15.1 µM
- TGI (HCT-15 colon): 31.1 µM
- GI50 (HL-60(TB) leukemia): 8.28 µM
- TGI (HL-60(TB) leukemia): 19.1 µM
- GI50 (HOP-62 NSCLC): 9.39 µM
- TGI (HOP-62 NSCLC): 23.4 µM
- GI50 (HOP-92 NSCLC): 12.9 µM
- TGI (HOP-92 NSCLC): 27.9 µM
- GI50 (HT29 colon): 10 µM
- TGI (HT29 colon): 23.4 µM
- GI50 (IGROV1 ovarian): 10.4 µM
- TGI (IGROV1 ovarian): 25.4 µM
- GI50 (K-562 leukemia): 7.92 µM
- TGI (K-562 leukemia): 20.1 µM
- GI50 (KM12 colon): 15.7 µM
- TGI (KM12 colon): 30.2 µM
- GI50 (M14 melanoma): 14.7 µM
- TGI (M14 melanoma): 28 µM
- GI50 (MALME-3M melanoma): 16.9 µM
- TGI (MALME-3M melanoma): 30.7 µM
- GI50 (MCF7 breast): 6.36 µM
- TGI (MCF7 breast): 18.7 µM
- GI50 (MDA-MB-231 breast): 8.58 µM
- TGI (MDA-MB-231 breast): 21.8 µM
- GI50 (MDA-MB-435 melanoma): 19 µM
- TGI (MDA-MB-435 melanoma): 34.2 µM
- GI50 (MOLT-4 leukemia): 2.17 µM
- TGI (MOLT-4 leukemia): 5.64 µM
- GI50 (NCI-H226 lung): 7.9 µM
- TGI (NCI-H226 lung): 21.9 µM
- GI50 (NCI-H23 lung): 12.1 µM
- TGI (NCI-H23 lung): 24.8 µM
- GI50 (NCI-H460 NSCLC): 6.31 µM
- TGI (NCI-H460 NSCLC): 19.6 µM
- GI50 (NCI/ADR-RES ovarian): 38.7 µM
- TGI (NCI/ADR-RES ovarian): > 92.6 µM
- GI50 (OVCAR-3 ovarian): 16 µM
- TGI (OVCAR-3 ovarian): 31 µM
- GI50 (OVCAR-4 ovarian): 21 µM
- TGI (OVCAR-4 ovarian): 38.2 µM
- GI50 (OVCAR-5 ovarian): 15.8 µM
- TGI (OVCAR-5 ovarian): 38.9 µM
- GI50 (PC-3 prostate): 16.1 µM
- TGI (PC-3 prostate): 38 µM
- GI50 (RPMI-8226 leukemia): 8.37 µM
- TGI (RPMI-8226 leukemia): 21.6 µM
- GI50 (RXF 393 renal): 10.6 µM
- TGI (RXF 393 renal): 23.8 µM
- GI50 (SF-268 CNS): 14.1 µM
- TGI (SF-268 CNS): 29.1 µM
- GI50 (SF-539 CNS): 12.4 µM
- TGI (SF-539 CNS): 25.1 µM
- GI50 (SK-MEL-2 melanoma): 11.9 µM
- TGI (SK-MEL-2 melanoma): 24.3 µM
- GI50 (SK-MEL-28 melanoma): 15.2 µM
- TGI (SK-MEL-28 melanoma): 28.8 µM
- GI50 (SK-OV-3 ovarian): 20.6 µM
- TGI (SK-OV-3 ovarian): 45.3 µM
- GI50 (SN12C renal): 14.9 µM
- TGI (SN12C renal): 31 µM
- GI50 (SR leukemia): 1.54 µM
- TGI (SR leukemia): 3.93 µM
- GI50 (SW-620 colon): 7.46 µM
- TGI (SW-620 colon): 23.6 µM
- GI50 (T-47D breast): 16.9 µM
- TGI (T-47D breast): 36.9 µM
- GI50 (TK-10 renal): 18.8 µM
- TGI (TK-10 renal): 46.5 µM
- GI50 (U251 glioblastoma): 14.4 µM
- TGI (U251 glioblastoma): 32.5 µM
- GI50 (UACC-257 melanoma): 12.8 µM
- TGI (UACC-257 melanoma): 26.4 µM
- GI50 (UACC-62 melanoma): 12.4 µM
- TGI (UACC-62 melanoma): 25 µM
- GI50 (UO-31 renal): 12.1 µM
- TGI (UO-31 renal): 28.5 µM
